According to US20220349875A1, “METHOD TO INDEPENDENTLY ANALYZE MULTIPLE BIOLOGICAL PROCESSES IN ENCAPSULATED 3D CELL CO-CULTURES” (UNIVERSITÉ DE GENÈVE, priority 2019, published 2022):

What was measured:
[1] = tested on: BC cells stably expressing the reporter zipGFP-Casp3; assay: Apoptosis of encapsulated BC cells (zipGFP-Casp3 reporter), monoculture or multi-culture with LC cells; format: cell-based; details: micromolar Tamoxifen (1 μM to 10 μM), 96 hours, with vs without LC cells; FIG. 4
Description: Image acquisition was performed with an automated confocal microscope. Cell segmentation and quantification of cell fluorescence intensities were performed with the software MetaXpress (Molecular Devices). For the quantification of apoptosis, cell fluorescence intensities from far-red-labelled capsules were measured and the green fluorescence was normalized with the red fluorescence. […] Data is representative of 3 independent replicates.
Dispense capsules in wells of a 96-well imaging quality plate by continuously pipetting up and down to maintain the capsules in suspension before transferring the proper volume into the well.
Half of wells are not filled with LC capsules (conditions with BC cells only)
Incubate the plate at 37° C. for 96 hours.

[2] = tested on: BC cells stably expressing the dual-reporter FUCCI; assay: Proliferation of encapsulated BC cells (FUCCI dual reporter), monoculture or multi-culture with LC cells; format: cell-based; details: micromolar Tamoxifen (1 μM to 10 μM), 96 hours; FIG. 5
Excerpt: LC cells were encapsulated in green-labelled alginate capsules, BC cells stably expressing the dual reporter gene FUCCI (active proliferating cells are green, not-proliferating cells (latent) are red) were encapsulated in unlabelled alginate capsules, and BC cells stably expressing the reporter gene zipGFP-Casp3 (all cells are red (reporter expression control) and cells become green upon apoptosis induction) were encapsulated in far-red-labelled alginate capsules. […] Image acquisition was performed with an automated confocal microscope. Cell segmentation and quantification of cell fluorescence intensities were performed with the software MetaXpress (Molecular Devices). For the quantification of proliferation, cell fluorescence intensities from unlabelled capsules were measured. […] Data is representative of 3 independent replicates.
Induction of apoptosis is measured by automated confocal microscopy (HCS) in BC cells stably expressing the reporter zipGFP-Casp3 and proliferation is measured at the same time in BC cells stably expressing the dual-reporter FUCCI. […]

CC/C(=C(\c1ccccc1)c1ccc(OCCN(C)C)cc1)c1ccccc1 [Tamoxifen]
induction of apoptosis in BC cells [1]: increased by Tamoxifen in a dose-dependent manner only in co-culture with LC cells
cell proliferation inhibition [2]: already maximal at 1 μM
